US9353072B2, “Antimicrobial substituted thiazoles and methods of use” (Purdue Research Foundation, priority 2012, dated 2016)
Values after ≈ are worked out from the molar mass of the structure shown.

Key:
NRS107 = assay: MIC/MBC broth microdilution, NRS107; assay type: cell-based; conditions: Staphylococcus aureus, Table 2, read-out: Minimum Inhibitory Concentration
Experimental: (§1) Determination of minimum inhibitory concentration (MIC). The MICs of the lead thiazole compound (compound 1a) and nine derivatives tested against all 18 MRSA strains were determined, in triplicate samples, using the broth microdilution method in accordance with the recommendations contained in the CLSI guidelines.

[1] = tested on: MRSA ATCC 700699 (NRS1, VISA); assay: MIC/MBC broth microdilution, NRS1 (ATCC 700699); assay type: cell-based; conditions: Staphylococcus aureus; Table 2; MRSA ATCC 700699; read-out: Minimum Inhibitory Concentration
Experimental: as §1

NRS194 = assay: MIC/MBC broth microdilution, NRS194; assay type: cell-based; conditions: Staphylococcus aureus, Table 2, read-out: Minimum Inhibitory Concentration
Experimental: as §1

NRS108 = assay: MIC broth microdilution, NRS108; assay type: cell-based; conditions: Staphylococcus aureus, Table 2, read-out: Minimum Inhibitory Concentration
Experimental: as §1

VRSA (VRS10) = assay: MIC/MBC broth microdilution, VRSA (VRS10); assay type: cell-based, Staphylococcus aureus; conditions: VRSA; for MIC: Staphylococcus aureus, Table 2, read-out: Minimum Inhibitory Concentration
Experimental: as §1

MRSA USA500 (NRS385) = assay: MIC/MBC broth microdilution, NRS385 (USA500); assay type: cell-based; conditions: Staphylococcus aureus; Table 2; MRSA USA500; read-out: Minimum Inhibitory Concentration
Experimental: as §1

VISA HIP07256 (NRS19) = assay: MIC/MBC broth microdilution, NRS19 (VISA HIP07256); assay type: cell-based; conditions: Staphylococcus aureus; Table 2; VISA HIP07256; read-out: Minimum Inhibitory Concentration
Experimental: as §1

MRSA USA200 = assay: MIC broth microdilution, MRSA USA200; assay type: cell-based; conditions: Staphylococcus aureus; Table 2; MRSA USA200; read-out: Minimum Inhibitory Concentration
Experimental: as §1

[2] = tested on: murine macrophage cells (J774.A1); assay: In vitro cytotoxicity analysis, MTS assay; assay type: cell-based; conditions: 16 μM, 24 hours
Experimental: In vitro cytotoxicity analysis: Compounds were assayed at concentrations of 2 μM, 4 μM, 8 μM, and 16 μM against a macrophage cell line (J774.A1) to determine the potential toxic effect in vitro. Murine macrophage cells were cultured in Dulbeco's Modified Eagle Medium (Sigma-Aldrich, St. Louis, Mo., USA) with 10% Fetal Bovine Serum (USA Scientific, Inc.) at 37° C. with 5% CO2. Controls received DMSO alone at a concentration equal to that in drug-treated cell samples. The cells were incubated with the compounds in a 96-Well Plate at 37° C. and 5.0% CO2 for 24 hours prior to addition of the assay reagent MTS 3-(4,5-dimethylthiazol-2-yl)-5-(3-carboxymethoxyphenyl)-2-(4-sulfophenyl)-2H-tetrazolium) (Promega, Madison, Wis., USA). The reagent measures the succinate dehydrogenase mitochondrial activity as an indicator of cell viability and proliferation. Corrected absorbance readings (actual absorbance readings for each treatment subtracted from background absorbance) were taken using a kinetic ELISA microplate reader (Molecular Devices, Sunnyvale, Calif., USA). The quantity of viable cells after treatment with each compound was expressed as a percentage of the control, DMSO.

MRSA USA700 = assay: MIC broth microdilution, MRSA USA700; assay type: cell-based; conditions: Staphylococcus aureus, Table 2, read-out: Minimum Inhibitory Concentration
Experimental: as §1

MRSA USA400 (NRS123) = assay: MIC/MBC broth microdilution, NRS123 (USA400); assay type: cell-based; conditions: Staphylococcus aureus; Table 2; MRSA USA400; read-out: Minimum Inhibitory Concentration
Experimental: as §1

NRS119 = assay: MIC/MBC broth microdilution, NRS119; assay type: cell-based; conditions: Staphylococcus aureus; Table 2; NRS119; read-out: Minimum Inhibitory Concentration
Experimental: as §1

VISA LIM 3 (NRS37) = assay: MIC/MBC broth microdilution, NRS37 (VISA LIM 3); assay type: cell-based; conditions: Staphylococcus aureus; Table 2; VISA LIM 3; read-out: Minimum Inhibitory Concentration
Experimental: as §1

MRSA USA100 = assay: MIC broth microdilution, MRSA USA100; assay type: cell-based; conditions: Staphylococcus aureus; Table 2; MRSA USA100; read-out: Minimum Inhibitory Concentration
Experimental: as §1

[3] = tested on: 18 different strains of MRSA and VRSA; assay: MIC broth microdilution, panel of 18 MRSA and VRSA strains (summary statements); assay type: cell-based, Staphylococcus aureus; conditions: relative to lead compound 1a; number of strains as stated in the sentence
Experimental: as §1

MRSA USA800 = assay: MIC broth microdilution, MRSA USA800; assay type: cell-based; conditions: Staphylococcus aureus, Table 2, read-out: Minimum Inhibitory Concentration
Experimental: as §1

MRSA NRS384 (USA300) = assay: MIC/MBC broth microdilution, NRS384 (USA300); assay type: cell-based; conditions: Staphylococcus aureus; Table 2; MRSA USA300; read-out: Minimum Inhibitory Concentration
Experimental: as §1

MRSA USA1100 = assay: MIC broth microdilution, MRSA USA1100; assay type: cell-based; conditions: Staphylococcus aureus, Table 2, read-out: Minimum Inhibitory Concentration
Experimental: as §1

MRSA (USA300) = assay: Time-kill assay; assay type: cell-based, Staphylococcus aureus; conditions: 3.0×MIC
Experimental: Time-kill assay. […] Viable CFU/mL was determined by serial dilution and plating on trypticase soy agar (TSA) (Becton, Dickinson and Company, Sparks, Md., USA) plates after 0, 2, 4, 6, 8, 10, and 12 hours of incubation at 37° C. to identify the time required to reduce the bacterial cell count by 3-log10.

MRSA ATCC 43300 = assay: Flow cytometry with LIVE/DEAD Fixable Dead Cell Stain; assay type: cell-based, Staphylococcus aureus; conditions: compound 1a at 4.0×MIC; lysostaphin positive control; 10 minutes at 37° C.
Experimental: Flow cytometry and LIVE/DEAD® Fixable Dead Cell Stain: The action of the lead compound on cell membrane permeability of MRSA was assayed using the LIVE/DEAD® Fixable Dead Cell Stain Kit (Invitrogen, Eugene, Oreg., USA) according to the manufacturer's instructions. […] Post-treatment cells were fixed with 3.7% formaldehyde; the cells were then screened with a Beckman Coulter FC500 flow cytometer.

Row | Molecule | MIC (NRS107) | MIC [1] | MIC (NRS194) | MIC (NRS108) | MIC (VRSA (VRS10)) | MIC (MRSA USA500 (NRS385)) | MIC (VISA HIP07256 (NRS19)) | MIC (MRSA USA200) | toxicity toward murine macrophage cells [2] | MIC (MRSA USA400 (NRS123)) | MIC (VISA LIM 3 (NRS37)) | improvement in the MIC value relative to the lead compound [3] | MIC (MRSA NRS384 (USA300)) | further results
1 | C/C(=N\NC(=N)N)c1sc(-c2ccc3ccccc3c2)nc1C [Compound 1h, 2-{1-[4-Methyl-2-(naphthalen-2-yl)thiazol-5-yl]ethylidene}hydrazinecarboximid-amide] | 1.9 µg/mL (≈ 5.87 µM) | 3.8 µg/mL (≈ 11.7 µM) | 1.9 µg/mL (≈ 5.87 µM) | 1.9 µg/mL (≈ 5.87 µM) | 0.5 µg/mL (≈ 1.55 µM) | 1.9 µg/mL (≈ 5.87 µM) | 1.9 µg/mL (≈ 5.87 µM) | 1.9 µg/mL (≈ 5.87 µM) | exhibited toxicity |  |  |  |  | reduction in MIC compared to 1a against VRSA (VRSA (VRS10)): near three-fold reduction; MIC (MRSA USA700): 1.9 µg/mL (≈ 5.87 µM)
2 | C/C(=N\NC(=N)N)c1sc(-c2ccc(C3=CCCCC3)cc2)nc1C [Compound 7, 2-{1-[2-(4-(1-Cyclohexenyl)phenyl)-4-methylthiazol-5-yl]ethylidene}hydrazine-carboximidamide] | 0.6 µg/mL (≈ 1.7 µM) | 0.6 µg/mL (≈ 1.7 µM) | 0.6 µg/mL (≈ 1.7 µM) | 2.3 µg/mL (≈ 6.51 µM) | 1.3 µg/mL (≈ 3.68 µM) | 1.2 µg/mL (≈ 3.39 µM) | 0.6 µg/mL (≈ 1.7 µM) | 1.2 µg/mL (≈ 3.39 µM) | none were observed to be toxic | 0.6 µg/mL (≈ 1.7 µM) | 0.6 µg/mL (≈ 1.7 µM) | two- to four-fold improvement | 1.2 µg/mL (≈ 3.39 µM) | MIC (NRS119): 0.6 µg/mL (≈ 1.7 µM); MIC (MRSA USA100): 1.2 µg/mL (≈ 3.39 µM); MIC (MRSA USA800): 0.6 µg/mL (≈ 1.7 µM)
3 | C/C(=N\NC(=N)N)c1sc(-c2ccc(C3CCCCC3)cc2)nc1C [Compound 8, 2-{1-[2-(4-Cyclohexylphenyl)-4-methylthiazol-5-yl]ethylidene}hydrazinecarboximid-amide] | 0.7 µg/mL (≈ 1.97 µM) | 0.7 µg/mL (≈ 1.97 µM) |  |  |  | 0.7 µg/mL (≈ 1.97 µM) |  | 1.5 µg/mL (≈ 4.22 µM) | none were observed to be toxic | 0.7 µg/mL (≈ 1.97 µM) | 0.4 µg/mL (≈ 1.13 µM) | two- to four-fold improvement | 0.7 µg/mL (≈ 1.97 µM) | MIC (MRSA USA1100): 0.7 µg/mL (≈ 1.97 µM); bactericidal effect in time-kill assay (MRSA (USA300); 12 hour incubation at 37° C.): bactericidal; time to eliminate MRSA completely (reduce CFU to zero) (MRSA (USA300); MRSA (USA300)): six hours
4 | lysostaphin: positive control; disrupts the cross-linking of the pentaglycin bridges in the cell wall of staphylococci [reference compound] |  |  |  |  |  |  |  |  |  |  |  |  |  | cells stained with the dye (MRSA ATCC 43300): 45%
